Assay [1] addresses Diacylglycerol kinase zeta (Homo sapiens, UniProt Q13574). Kind of assay: Biochemical DGK IC50 Assays. Here is the method: (§1) Enzymatic reactions of DGKζ, DGKα and DGKδ were performed using ADP-Glo assay with lipid micelle substrate. […] Full length DGKα (D21-10BG, SignalChem) and full length DGKδ (D23-10G, SignalChem) were purchased. […] The resulted product was resuspended in buffer containing 25 mM HEPES pH 7.0, 0.5 mM EDTA and 160 mM Octyl P-D glucopyranoside by vigorous mixing and ultrasonic (IID, Scientz). Final concentration in reaction. […] The inhibition activities testing for the compound disclosed herein were carried out at room temperature in assay buffer containing 50 mM HEPES, 10 mM MgCl2, 0.01% BSA, 0.1 mM Na3VO4, 0.005% Tween-20 and 0.01 mM CaCl2. […] 3 μL 2× enzyme solution was added to wells. […] After 1 hour reaction, 5 μL ADP-Glo reagent (Promga V9101) was added and incubated for 40 minutes. 10 μL Kinase Detection reagent was added and incubated for 30 minutes. Luminescence was measured on a microplate reader (PHERAstar FSX, BMG labtech). The IC50s are calculated based on inhibition of enzyme activity in the presence of increasing concentrations of compounds.

In assay [2] the target is Diacylglycerol kinase alpha (Homo sapiens, UniProt P23743). Kind of assay: Biochemical DGK IC50 Assays. Here is the method:
as §1

A value given as a limit tells only on which side of the number the result lay.

Sequence of Diacylglycerol kinase zeta (Q13574 as listed by the source): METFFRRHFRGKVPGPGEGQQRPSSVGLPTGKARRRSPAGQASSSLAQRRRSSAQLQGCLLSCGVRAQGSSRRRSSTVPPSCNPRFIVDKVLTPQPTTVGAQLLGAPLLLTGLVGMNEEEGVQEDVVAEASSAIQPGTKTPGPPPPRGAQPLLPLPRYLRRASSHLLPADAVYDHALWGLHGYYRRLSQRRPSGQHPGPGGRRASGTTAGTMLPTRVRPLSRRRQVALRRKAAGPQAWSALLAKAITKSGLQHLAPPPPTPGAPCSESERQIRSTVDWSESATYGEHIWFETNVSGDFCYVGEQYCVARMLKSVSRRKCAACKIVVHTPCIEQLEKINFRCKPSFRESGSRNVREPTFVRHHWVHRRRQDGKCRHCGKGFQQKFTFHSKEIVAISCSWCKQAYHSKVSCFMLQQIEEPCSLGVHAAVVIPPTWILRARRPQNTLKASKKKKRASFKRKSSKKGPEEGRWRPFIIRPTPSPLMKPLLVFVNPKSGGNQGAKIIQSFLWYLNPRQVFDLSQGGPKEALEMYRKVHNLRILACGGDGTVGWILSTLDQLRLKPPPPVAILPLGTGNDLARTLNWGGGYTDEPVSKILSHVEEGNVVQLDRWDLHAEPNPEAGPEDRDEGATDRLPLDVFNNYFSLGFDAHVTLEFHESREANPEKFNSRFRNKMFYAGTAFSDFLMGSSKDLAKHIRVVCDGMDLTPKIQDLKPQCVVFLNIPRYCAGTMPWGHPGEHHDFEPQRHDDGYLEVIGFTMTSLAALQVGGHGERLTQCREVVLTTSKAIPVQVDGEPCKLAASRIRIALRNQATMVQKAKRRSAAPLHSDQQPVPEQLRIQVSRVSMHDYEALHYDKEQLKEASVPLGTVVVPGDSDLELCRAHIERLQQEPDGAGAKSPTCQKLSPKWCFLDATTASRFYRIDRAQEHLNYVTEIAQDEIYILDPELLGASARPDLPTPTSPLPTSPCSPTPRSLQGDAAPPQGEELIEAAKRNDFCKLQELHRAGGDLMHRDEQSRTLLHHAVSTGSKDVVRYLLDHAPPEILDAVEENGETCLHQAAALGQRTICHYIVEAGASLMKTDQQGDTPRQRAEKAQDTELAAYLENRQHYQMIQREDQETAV
Sequence of Diacylglycerol kinase alpha (P23743 whole entry): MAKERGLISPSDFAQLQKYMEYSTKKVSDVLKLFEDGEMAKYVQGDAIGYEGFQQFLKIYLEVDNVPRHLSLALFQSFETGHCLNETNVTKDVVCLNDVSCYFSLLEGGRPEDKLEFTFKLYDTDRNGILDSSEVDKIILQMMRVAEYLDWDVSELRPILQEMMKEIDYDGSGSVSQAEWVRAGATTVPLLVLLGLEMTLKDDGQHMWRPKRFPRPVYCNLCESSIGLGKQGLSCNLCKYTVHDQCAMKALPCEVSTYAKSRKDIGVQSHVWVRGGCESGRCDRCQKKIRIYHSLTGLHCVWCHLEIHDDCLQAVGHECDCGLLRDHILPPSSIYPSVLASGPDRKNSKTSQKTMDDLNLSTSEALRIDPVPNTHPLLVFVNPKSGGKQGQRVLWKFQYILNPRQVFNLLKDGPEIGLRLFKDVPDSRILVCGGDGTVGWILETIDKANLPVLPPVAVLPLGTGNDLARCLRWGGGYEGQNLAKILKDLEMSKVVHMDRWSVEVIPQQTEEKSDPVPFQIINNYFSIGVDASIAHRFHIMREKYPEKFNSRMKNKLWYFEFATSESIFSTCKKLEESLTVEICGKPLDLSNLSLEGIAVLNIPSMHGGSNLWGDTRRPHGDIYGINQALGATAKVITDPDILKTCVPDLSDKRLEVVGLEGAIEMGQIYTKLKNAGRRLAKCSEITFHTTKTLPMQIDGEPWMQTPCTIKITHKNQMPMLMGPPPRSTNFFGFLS

Take `CC[C@H]1CN(C(C)c2ccc(N)nc2)[C@H](CC)CN1c1cc(=O)n(C)c2cn(CC#N)nc12` (single isomer, unassigned) [US20250346597, Compound A187b]: in assay [1], the IC50 was > 10000 nM.

In the case of `CC[C@@H]1CN(C2CC(=O)N(C)C3=CN(CC#N)NC32)[C@@H](CC)CN1C(C)c1ccc(OCCOC)cc1` (stereo partly drawn) [US20250346597, Compound A11], the IC50 in assay [1] was determined as 500 nM; in assay [2] it was 79 nM.

By IC50 is commonly meant the concentration needed to halve the response being measured. A lower IC50 goes with inhibition by little substance.

Source of the values: BindingDB's records for patent US20250346597 (Beone Medicines I, 2025).
